In patent US5750754A, “Heterocyclic compounds” (Zeneca Limited, priority 1993, dated 1998):
Structures can show the parent of a compound that is named as a salt. Values belong to the molecule of their own block, whether it stands above or below them.

Columns and labels:
[1] = biological target: T1, human, citrated, platelet-rich plasma (Homo sapiens, UniProt P05106+P08514); experiment: Test (a): inhibition of ADP stimulated platelet aggregation (Born); assay type: cell-based; details: ADP induced aggregation of human platelet-rich plasma; for Kb: read-out: Test (a): pA2 value indicating potency of platelet aggregation inhibition (converted)
T1 construct: aggregating human, citrated, platelet-rich plasma; endogenous in cells; host or cells: human platelets in citrated platelet-rich plasma
Method in brief: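 pA2 calculated by comparing ADP EC50-type (50% response) values in presence and absence of compound, averaged across concentrations (generally 10-^5 M to 10-^10 M). Aggregation (Born) induced by ADP in citrated human platelet-rich plasma, giving dose-response curves.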

[2] = tested on: aggregation of human blood platelets; experiment: Test (a) modified to assess activity on oral administration (ex vivo); assay type: in vivo, dog; details: dogs, 5 mg/kg
Protocol: Test (a) may be modified so as to assess the effects of a test compound ex vivo on the aggregation of human blood platelets after administration of the test compound to a laboratory animal, such as a rat, rabbit, guinea pig, mouse or dog. For example, groups of four male, fasted Alderley Park Wistar rats are orally dosed with a test compound or appropriate vehicle, and at suitable time intervals (1,3,5 and 8 hours after dosing) animals are anaesthetised with fluothane and bled by heart puncture. Blood is collected into 3.2% citrate (1 part to 9 parts whole blood) and platelet poor plasma (ppp) prepared by centrifugation (4500×g for 10 min). […]
Equal volumes (125 μl) of rat ppp and human prp are mixed together, ADP added, and the whole incubated (37° C.) and stirred (900 rpm) in a BioData platelet aggregometer. Aggregation is induced with ADP and agonist EC50 values calculated for human prp/rat ppp mixtures from animals dosed with test compound or vehicle. A mean concentration ratio (concentration of ADP required to cause a 50% aggregation response in human prp/rat ppp mixtures from animals dosed with antagonist, divided by the concentration of ADP to cause 50% aggregation in human prp/rat ppp mixtures from animals dosed with vehicle) is calculated at each time point.

[3] = biological target: T2, purified human platelet fibrinogen receptor (GPIIb/IIIa) (Homo sapiens, UniProt P05106+P08514); experiment: Test (b): GPIIb/IIIa ELISA, inhibition of biotinylated fibrinogen binding; details: for IC50: read-out: Test (b): pIC50 (-log(IC50)), 50% inhibition of biotinylated fibrinogen binding to GPIIb/IIIa (converted)
T2 construct: is isolated from human platelet lysates; from tissue
Method in brief: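 Inhibition of biotinylated fibrinogen ([…]) binding to immobilised human platelet fibrinogen receptor, purified by KYGRGDS peptide affinity chromatography, was measured after 2 h at 30 °C. Readout: streptavidin–biotin-HRP colour with TMB at […]; value expressed as pIC50.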

αv β1 = experiment: Binding of αv β1 to fibronectin
[4] = tested on: Alderley Park Wistar rats; experiment: Repeated oral dose study in the rat (liver effects, tolerability); assay type: in vivo
Protocol: The following is a description of a study of the effects of the (-)-(3R) compound of Example 246 and the corresponding (3RS)-racemic mixture of Example 203 in the rat. Four groups of ten Alderley Park Wistar rats (each group comprising 5 male and 5 female rats) were dose orally with the (3RS)-racemic mixture of Example 203 at daily doses of 0, 25, 100 or 500 mg/kg. Dosing was continued for a total of seven days. The animals were killed and examined.
Four groups of ten Alderley Park Wistar rats (each group comprising 5 male and 5 female rats) were dosed orally with the (-)-(3R) compound of Example 246 at daily doses of 0, 50, 250 and 1000 mg/kg. The highest dose was not tolerated. After four or five days, four of the animals from this group were killed. The remaining six animals were dosed at 500 mg/kg/day for the remainder of the study. Dosing was continued for a total of fourteen days. The animals were killed and examined.

αv β3 = αv β3 (Homo sapiens, UniProt P05106+P06756); experiment: Binding of αv β3 to vitronectin; details: read-out: pIC50, binding of αv β3 to vitronectin (converted)
[5] = purified human platelet GPIIb/IIIa, ELISA

T2 sequence (P08514 32-887 limits assumed): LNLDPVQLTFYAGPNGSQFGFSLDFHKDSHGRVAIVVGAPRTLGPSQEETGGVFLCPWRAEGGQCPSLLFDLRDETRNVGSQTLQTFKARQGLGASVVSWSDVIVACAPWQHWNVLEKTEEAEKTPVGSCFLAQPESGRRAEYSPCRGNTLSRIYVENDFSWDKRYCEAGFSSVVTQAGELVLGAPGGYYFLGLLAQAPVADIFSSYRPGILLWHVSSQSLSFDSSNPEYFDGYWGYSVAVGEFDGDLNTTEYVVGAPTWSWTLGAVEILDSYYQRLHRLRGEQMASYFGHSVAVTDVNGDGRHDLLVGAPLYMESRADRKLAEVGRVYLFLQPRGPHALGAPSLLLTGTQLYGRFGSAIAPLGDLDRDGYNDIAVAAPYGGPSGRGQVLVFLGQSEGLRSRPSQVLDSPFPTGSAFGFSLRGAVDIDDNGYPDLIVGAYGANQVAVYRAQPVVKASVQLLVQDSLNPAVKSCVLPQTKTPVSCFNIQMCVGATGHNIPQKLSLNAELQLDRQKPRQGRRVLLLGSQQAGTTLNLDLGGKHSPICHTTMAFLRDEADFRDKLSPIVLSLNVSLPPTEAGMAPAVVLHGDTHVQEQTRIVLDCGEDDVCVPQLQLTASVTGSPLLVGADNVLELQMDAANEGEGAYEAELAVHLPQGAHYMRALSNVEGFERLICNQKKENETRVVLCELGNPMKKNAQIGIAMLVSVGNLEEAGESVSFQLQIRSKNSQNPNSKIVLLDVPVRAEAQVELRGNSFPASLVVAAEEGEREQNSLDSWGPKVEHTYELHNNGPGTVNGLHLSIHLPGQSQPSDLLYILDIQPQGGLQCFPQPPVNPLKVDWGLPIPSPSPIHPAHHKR
T2 sequence (P08514 891-1039 limits assumed): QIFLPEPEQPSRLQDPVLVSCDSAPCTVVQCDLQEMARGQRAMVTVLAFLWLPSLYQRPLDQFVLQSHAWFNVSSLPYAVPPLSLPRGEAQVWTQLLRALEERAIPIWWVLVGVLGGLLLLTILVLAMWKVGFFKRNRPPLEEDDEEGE
T2 sequence (P05106 27-788): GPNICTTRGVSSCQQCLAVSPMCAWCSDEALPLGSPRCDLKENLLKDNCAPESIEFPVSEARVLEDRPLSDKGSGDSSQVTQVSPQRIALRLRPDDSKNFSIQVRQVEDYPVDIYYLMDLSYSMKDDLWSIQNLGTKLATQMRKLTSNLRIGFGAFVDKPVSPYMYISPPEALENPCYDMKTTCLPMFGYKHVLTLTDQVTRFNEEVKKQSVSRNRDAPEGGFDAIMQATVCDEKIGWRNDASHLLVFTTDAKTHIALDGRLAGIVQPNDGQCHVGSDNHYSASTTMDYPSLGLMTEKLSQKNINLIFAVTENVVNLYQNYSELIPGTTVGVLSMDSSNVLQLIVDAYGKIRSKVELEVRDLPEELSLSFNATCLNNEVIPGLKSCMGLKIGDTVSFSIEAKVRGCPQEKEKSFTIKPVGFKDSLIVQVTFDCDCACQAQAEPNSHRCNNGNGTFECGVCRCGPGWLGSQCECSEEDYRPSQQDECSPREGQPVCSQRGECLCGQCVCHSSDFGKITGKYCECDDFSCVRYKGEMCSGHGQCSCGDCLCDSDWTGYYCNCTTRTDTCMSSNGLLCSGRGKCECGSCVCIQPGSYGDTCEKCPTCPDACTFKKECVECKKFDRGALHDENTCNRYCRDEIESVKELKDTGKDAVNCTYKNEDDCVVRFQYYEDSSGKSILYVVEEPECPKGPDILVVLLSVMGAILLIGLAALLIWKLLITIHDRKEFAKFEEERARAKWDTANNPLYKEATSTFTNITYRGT
T1 sequence (P08514 32-887 limits assumed): as the sequence (P08514 32-887 limits assumed) above
T1 sequence (P08514 891-1039 limits assumed): as the sequence (P08514 891-1039 limits assumed) above
T1 sequence (P05106 27-788): as the sequence (P05106 27-788) above
Sequence of αv β3 (P06756 31-889 limits assumed): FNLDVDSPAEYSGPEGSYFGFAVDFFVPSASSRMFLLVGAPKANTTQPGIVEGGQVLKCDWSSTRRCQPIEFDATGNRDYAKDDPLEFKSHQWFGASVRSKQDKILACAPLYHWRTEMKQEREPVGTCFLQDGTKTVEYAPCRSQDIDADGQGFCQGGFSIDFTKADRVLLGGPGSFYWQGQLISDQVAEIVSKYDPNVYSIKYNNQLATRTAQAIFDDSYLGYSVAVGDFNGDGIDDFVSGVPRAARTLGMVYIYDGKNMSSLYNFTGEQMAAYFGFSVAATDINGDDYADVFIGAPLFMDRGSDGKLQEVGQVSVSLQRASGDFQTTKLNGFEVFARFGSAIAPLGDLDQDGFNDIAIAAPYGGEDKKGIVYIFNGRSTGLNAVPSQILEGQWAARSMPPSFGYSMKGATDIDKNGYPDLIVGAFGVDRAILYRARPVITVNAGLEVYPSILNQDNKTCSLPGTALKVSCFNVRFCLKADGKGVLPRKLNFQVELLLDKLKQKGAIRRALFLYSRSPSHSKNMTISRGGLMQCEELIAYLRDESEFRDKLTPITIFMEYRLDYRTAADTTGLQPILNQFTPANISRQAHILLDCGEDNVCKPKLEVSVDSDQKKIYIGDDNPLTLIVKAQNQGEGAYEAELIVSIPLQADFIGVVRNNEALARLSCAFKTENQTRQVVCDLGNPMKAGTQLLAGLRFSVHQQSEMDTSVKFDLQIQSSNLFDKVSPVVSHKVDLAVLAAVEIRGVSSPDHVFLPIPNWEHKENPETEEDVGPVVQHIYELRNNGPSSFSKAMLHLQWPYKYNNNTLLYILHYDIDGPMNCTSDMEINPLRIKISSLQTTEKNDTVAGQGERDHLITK
Sequence of αv β3 (P06756 891-1048 limits assumed): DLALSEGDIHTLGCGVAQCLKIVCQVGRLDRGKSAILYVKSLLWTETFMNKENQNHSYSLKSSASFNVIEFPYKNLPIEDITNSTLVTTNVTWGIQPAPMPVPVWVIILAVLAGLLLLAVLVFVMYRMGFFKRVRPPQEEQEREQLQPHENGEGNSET
Sequence of αv β3 (P05106 27-788): as the sequence (P05106 27-788) above

SMILES: C[C@@H](COc1ccc(N2CCN(c3ccncc3)CC2)cc1)CC(=O)O.Cl [Example 246, (-)-(3R)-3-Methyl-4-{4-[4-(4-pyridyl)piperazin-1-yl]phenoxy}butyric acid hydrochloride]
Kb [1]: 50.1 nM | pIC50, binding of αv β1 to fibronectin (αv β1): less than 4 | toxicity relative to the (3RS)-racemic mixture (by implication) ([4]; rat oral studies compared): less toxic than the (3RS)-racemic mixture of Example 203 | adverse effect on the rat liver (conclusion) ([4]; rat, 500 mg/kg/day): no significant adverse effect on the rat liver | adverse effects in the liver ([4]; rat, oral, 250 mg/kg/day, fourteen days): No adverse effects were noted in the livers | tolerability of the highest dose ([4]; rat, oral, 1000 mg/kg daily): not tolerated | adverse effect on the liver ([4]; rat, oral, 1000 mg/kg/day for three or four days then 500 mg/kg/day for ten or eleven days): no adverse effect on the liver | IC50 (αv β3): > 100 µM | IC50 [3, 5]: 22.4 nM | potency as a GPIIb/IIIa antagonist relative to the corresponding (+)-(3S) isomer ([3]; versus (+)-(3S) isomer): greater than 10 fold

SMILES: CC(COc1ccc(N2CCN(c3ccncc3)CC2)cc1)CC(=O)O (racemic) [Example 203, RS 3-Methyl-4-[4-[4-(4-pyridyl)piperazin-1-yl]phenoxy]butyric acid trifluoroacetate]
Test (a): pA2 value indicating potency of platelet aggregation inhibition [1]: 7.2 | adverse effects in the liver ([4]; rat, oral, 500 mg/kg/day, seven days): Adverse effects were noted in the livers of six of the group of ten rats | Test (b): pIC50 (-log(IC50)), 50% inhibition of biotinylated fibrinogen binding to GPIIb/IIIa [3, 5]: 8

SMILES: O=C(O)COc1ccc(C(=O)CN2CCN(c3ccnc4ccccc34)CC2)cc1 [Example 44, 4-[2-[4-(4-Quinolinyl)piperazin-1-yl]acetyl]phenoxyacetic acid trifluoroacetate salt]
Kb [1]: 10000 nM | IC50 [3, 5]: 100 nM

Continued, in another order:

Kb [1]: 158 to 316 nM | IC50 [3, 5]: 398 to 1580 nM
SMILES: COC(=O)COc1ccc(C(=O)CN2CCN(c3ccncc3)CC2)cc1 [Example 1, Methyl 4-[2-[4-(4-pyridyl)piperazin-1-yl]acetyl]phenoxyacetate]
duration of activity when dosed orally [2]: up to 12 hours

Kb [1]: 1000 nM | IC50 [3, 5]: 1580 nM
SMILES: Cc1ccc(S(=O)(=O)NCCC2CCN(C(=O)CN3CCN(c4ccncc4)CC3)CC2)cc1 [Example 223, N-[2-[1-[2-[4-(4-pyridyl)piperazin-1-yl]acetyl]piperidin-4-ylethyl]-4-methylphenylsulphonamide, dihydrochloride]
